Experimental findings from article PMC8911181, “A Novel CDK4/6 and PARP Dual Inhibitor ZC-22 Effectively Suppresses Tumor Growth and Improves the Response to Cisplatin Treatment in Breast and Ovarian Cancer” (International Journal of Molecular Sciences, 2022) are described below.

What all share (test): Cell viability assay (CCK-8), IC50
Holding throughout (format): cell-based

The test system of experiment [1] is MDA-MB-231 cells. Conditions: Homo sapiens, 6 days, medium replenished every 2 days. How it is done:
(§1) Human breast cancer cell lines MDA-MB-231 and SUM-159, and human ovarian cancer cell lines OVCAR5 and SKOV3 were obtained from the American Type Culture Collection (ATCC). MDA-MB-231 cells were cultured in L-15 medium with 10% fetal bovine serum (FBS), incubated at 37 °C in a humidified incubator without additional CO2. SUM-159 cells were maintained in Dulbecco’s modified Eagle’s medium (DMEM) containing 10% FBS, and OVCAR5 and SKOV3 cells were incubated in Roswell Park Memorial Institute (RPMI)-1640 medium with 10% FBS and cultured at 37 °C in a humidified incubator containing 5% CO2.
(§2) Cell viability assay was performed as described before. Briefly, 2500/well of breast or ovarian cancer cells were seeded into a 96-well plate; grown overnight; treated with indicated concentration of Olaparib, LY2835219, ZC22, LP-1, GC-24, or cisplatin alone or together for an indicated amount of time; and then incubated with Cell Counting kit-8 (CCK-8) substrate (Dojindo, Kumamoto, Kyushu Island, Japan) for 1–2 h at 37 °C. Cell viability was calculated by the absorbance at 450 nm measured by the GloMax Explorer (Promega, Madison, WI, USA). Cells without treatment were set as 100%, and medium control (no cells) was set as 0%.
(§3) Figure 1 Synthesis strategy and activity assay of the novel compounds targeting both PARP and CDK4/6. (A) Synthesis strategy of the three novel compounds GC-24, LP-1, and ZC-22. (B) IC50 of GC-24, LP-1, and ZC-22 in breast and ovarian cancer cells. Cells were treated with increasing concentrations of GC-24, LP 1, or ZC-22 for 6 days with replenishment of medium every 2 days. Cell proliferation was analyzed by CCK-8 assays. (C) The reagents and conditions used for the chemical synthesis of ZC-22 in this study: (a) Pd(AcO)2, BINAP, CS2CO3, 1,4-Dioxane, 100 °C, 12 h; (b) CF3COOH, DCM, Room temperature, 6 h; (c) HOBt, EDCI, DIPEA, DMF, Room temperature, 12 h. TEXT PRINTED IN THE PICTURE: (B) LP-1: MDA-MB-231 IC50 (μM): >50; SUM-159 IC50 (μM): 7.780; OVCAR5 IC50 (μM): 10.11; SKOV3 IC50 (μM): 10.16 | (B) GC-24: MDA-MB-231 IC50 (μM): 33.77; SUM-159 IC50 (μM): 17.77; OVCAR5 IC50 (μM): 26.08; SKOV3 IC50 (μM): >50 | (B) ZC-22: MDA-MB-231 IC50 (μM): 3.608; SUM-159 IC50 (μM): 0.435; OVCAR5 IC50 (μM): 0.758; SKOV3 IC50 (μM): 0.542
(§4) Figure 2 ZC-22 suppresses proliferation of breast and ovarian cancer cells. (A) IC50 of ZC-22, Olaparib, and LY2835219 (Abemaciclib) in breast and ovarian cancer cells. Cells were treated with increasing concentrations of ZC-22, Olaparib, or LY2835219 for 6 days with replenishment of medium every 2 days. Cell proliferation was analyzed by CCK-8 assays. (B) Cell proliferation assay of breast and ovarian cancer cells with indicated treatment. MDA-MB-231 cells were treated with 2 μM Olaparib (OLA) or LY2835219 (LY-2) alone or together (OLA + LY-2) or with ZC-22 alone for 48 or 72 h. SUM-159, OVCAR5, and SKOV3 cells were treated with 0.5 μM OLA or LY-2 alone or together or with ZC-22 alone. Cell proliferation assay was analyzed by CCK-8 assays. Values are means ± SD, n = 3. ns, not significant, * p < 0.05, ** p < 0.01 and *** p < 0.001 for comparisons with the DMSO-treated group using an unpaired t-test. TEXT PRINTED IN THE PICTURE: (A) ZC-22: MDA-MB-231 IC50 (μM): 3.608; SUM-159 IC50 (μM): 0.435; OVCAR5 IC50 (μM): 0.758; SKOV3 IC50 (μM): 0.542 | (A) LY2835219: MDA-MB-231 IC50 (μM): 11.28; SUM-159 IC50 (μM): 0.664; OVCAR5 IC50 (μM): 9.791; SKOV3 IC50 (μM): 1.158 | (A) Olaparib: MDA-MB-231 IC50 (μM): 32.13; SUM-159 IC50 (μM): 19.29; OVCAR5 IC50 (μM): 30.51; SKOV3 IC50 (μM): >50

The test system of experiment [2] is OVCAR5 cells. Conditions: Homo sapiens, OVCAR-5, 6 days, medium replenished every 2 days. The protocol: as §1, §2, §3, §4
The subject of experiment [3] is SKOV3 cells. Particulars: Homo sapiens, SK-OV-3, 6 days, medium replenished every 2 days. The protocol:
as §1, §2, §3, §4

Experiment [4] has as its system SUM-159 cells. Conditions: Homo sapiens, SUM159, 6 days, medium replenished every 2 days. How it is done: as §1, §2, §3, §4

For orientation: IC50 means the midpoint of a concentration-inhibition curve. Turning to `Cc1nc2c(F)cc(-c3nc(Nc4ccc(N5CCN(C(=O)c6cc(Cc7n[nH]c(=O)c8ccccc78)ccc6F)CC5)cn4)ncc3F)cc2n1C(C)C` [ZC-22, 4-(4-fluoro-3-(4-(6-((5-fluoro-4-(4-fluoro-1-isopropyl-2-methyl-1H-benzo[d]imidazole-6-yl)pyrimidin-2-yl)amino)pyridin-3-yl)piperazine-1-carbonyl)benzyl)phthalazin-1(2H)-one], the IC50 in experiment [1] is 3610 nM; in experiment [2] it was 758 nM; in experiment [3], 542 nM; in experiment [4], 435 nM.

Consider `CCN1CCN(Cc2ccc(Nc3ncc(F)c(-c4cc(F)c5nc(C)n(C(C)C)c5c4)n3)nc2)CC1` [LY2835219, Abemaciclib, reference compound], for which the IC50 is 11300 nM in experiment [1], 9790 nM in experiment [2], 1160 nM in experiment [3] and 664 nM in experiment [4].
